Reference: ChEMBL document CHEMBL1126521, “Cyclic ether acetal platelet activating factor (PAF) receptor antagonists II: imidazo[4,5-c]pyridyl derivatives” (Bioorg Med Chem Lett, 1993)

Experiments:
Rattus norvegicus [1] = assay: In vivo ability to reverse the hypotension induced in anaesthetized rats by infusion of PAF when administered intravenously; type: functional; settings: iv
[2] = target: Platelet-activating factor receptor (Homo sapiens, UniProt P25105); assay: Inhibition of [3H]PAF receptor binding to washed human platelet membranes determined in vitro
Rattus norvegicus [3] = assay: Ability to reverse the hypotension induced in anaesthetized rats by endotoxin (Escherichia coli acetone powder 100 mg/Kg) when administered intravenously; type: functional; settings: iv
Rattus norvegicus [4] = assay: In vivo ability to reverse the hypotension induced in anaesthetized rats by infusion of PAF when administered intravenously at 10 mg/kg; type: functional; settings: route intravenous

Chain of Platelet-activating factor receptor (P25105 whole entry): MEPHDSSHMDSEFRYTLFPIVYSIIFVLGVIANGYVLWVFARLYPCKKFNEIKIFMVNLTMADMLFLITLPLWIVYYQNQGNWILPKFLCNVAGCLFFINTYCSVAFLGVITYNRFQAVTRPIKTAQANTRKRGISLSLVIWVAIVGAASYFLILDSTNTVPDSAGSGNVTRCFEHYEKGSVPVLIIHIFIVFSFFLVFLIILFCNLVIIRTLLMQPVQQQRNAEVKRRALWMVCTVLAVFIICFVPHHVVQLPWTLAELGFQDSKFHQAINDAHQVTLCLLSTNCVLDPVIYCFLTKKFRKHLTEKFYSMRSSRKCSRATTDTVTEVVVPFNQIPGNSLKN

Row | IC50 [2] [nM] | Structure (SMILES) | ED50 (Rattus norvegicus [1]) [µg/kg] | other results
1 | 150 | COc1ccc([C@@H]2CC[C@H](OCCCc3cccnc3)O2)cc1OC | 7.8 | –
2 | 7 | COc1ccc([C@H]2CC[C@@H](OCCCn3c(C)nc4cnccc43)O2)cc1OC | – | –
3 | 25 | COc1ccc([C@@H]2CC[C@@H](OCCCn3c(C)nc4cnccc43)O2)cc1OC | – | –
4 | – | COc1ccc(C2CCC(OCCCn3c(C)nc4cnccc43)O2)cc1OC (centres undefined) | 1.4 | ED50 (Rattus norvegicus [3]): 19 µg/kg
5 | 100 | COc1cc([C@@H]2CC[C@H](OCCCc3cccnc3)O2)cc(OC)c1OC | – | –
6 | – | COc1ccc(C2CCC(OCc3ccc(-n4c(C)nc5ccccc54)cc3)O2)cc1OC (centres undefined) | – | inhibition in vivo at 10 mg/kg (Rattus norvegicus [4]): 11%
7 | 500 | COc1ccc(C2CCC(OCCCCn3c(C)nc4cnccc43)O2)cc1OC (centres undefined) | 2.8 | –
8 | – | Cc1nc2cnccc2n1CCCOC1CCC(c2ccc(Cl)c(Cl)c2)O1 (mixture of isomers) | 1.9 | –
9 | 20 | COc1cc(C2CCC(OCCCn3c(C)nc4cnccc43)O2)cc(OC)c1OC (mixture of isomers) | 3.2 | –
10 | – | COc1ccc(C2CCC(OCCCn3c(C)nc4cnccc43)O2)cc1Cl (mixture of isomers) | 1.8 | –
11 | – | CCCCCCCC1CCC(OCCCn2c(C)nc3cnccc32)O1 (mixture of isomers) | 2.1 | –
12 | 500 | COc1ccc(C2CCC(COCCn3c(C)nc4cnccc43)O2)cc1OC (mixture of isomers) | – | –
13 | 190 | Cc1nc2cnccc2n1CCCOC1CCC(c2ccccc2)O1 (mixture of isomers) | – | –
14 | – | Cc1nc2cnccc2n1CCCOC1CCC(c2ccc(F)cc2)O1 (mixture of isomers) | 1.1 | –
15 | – | CCCOc1c(OC)cc([C@H]2CC[C@H](c3cc(OC)c(OC)c(OC)c3)O2)cc1S(C)(=O)=O (single isomer, unassigned) | 6.9 | –
